The text below walks through data of patent US12662479B2 (Foghorn Therapeutics Inc., priority 2020, dated 2026).

For assay [1], the target named is T1, HiBit-BRM fusion protein (Homo sapiens, UniProt P51531).
T1 construct: expressed in transfected cells
Description: HiBiT-BRM cell-based degradation assay (Nano-Glo HiBiT Lytic Detection, 24 h). The conditions noted are these: HeLa cells expressing HiBiT-BRM; for DC50: read-out: BRM HiBit Degradation IC50; for BRM HiBit Degradation Maximum measured: top dose 30 μM. Summed up:
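HeLa cells stably expressing HiBiT-BRM were treated for 24 h with compounds (10-point 3-fold dilutions, 30 μM final top dose, in duplicate). HiBiT was detected by lytic LgBiT complementation luminescence. % degradation was normalized to DMSO (high control) and 2 μM of a reference BRM/BRG1 degrader (low control).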
(In general: With HiBiT, luminescence reflects the tagged protein that the partner subunit can reach.)

The target of assay [2] is T2, HiBit-BRG1 fusion protein (Homo sapiens, UniProt P51532).
T2 construct: expressed in transfected cells
T2 sequence (P51532 whole entry, the tested form may be a part): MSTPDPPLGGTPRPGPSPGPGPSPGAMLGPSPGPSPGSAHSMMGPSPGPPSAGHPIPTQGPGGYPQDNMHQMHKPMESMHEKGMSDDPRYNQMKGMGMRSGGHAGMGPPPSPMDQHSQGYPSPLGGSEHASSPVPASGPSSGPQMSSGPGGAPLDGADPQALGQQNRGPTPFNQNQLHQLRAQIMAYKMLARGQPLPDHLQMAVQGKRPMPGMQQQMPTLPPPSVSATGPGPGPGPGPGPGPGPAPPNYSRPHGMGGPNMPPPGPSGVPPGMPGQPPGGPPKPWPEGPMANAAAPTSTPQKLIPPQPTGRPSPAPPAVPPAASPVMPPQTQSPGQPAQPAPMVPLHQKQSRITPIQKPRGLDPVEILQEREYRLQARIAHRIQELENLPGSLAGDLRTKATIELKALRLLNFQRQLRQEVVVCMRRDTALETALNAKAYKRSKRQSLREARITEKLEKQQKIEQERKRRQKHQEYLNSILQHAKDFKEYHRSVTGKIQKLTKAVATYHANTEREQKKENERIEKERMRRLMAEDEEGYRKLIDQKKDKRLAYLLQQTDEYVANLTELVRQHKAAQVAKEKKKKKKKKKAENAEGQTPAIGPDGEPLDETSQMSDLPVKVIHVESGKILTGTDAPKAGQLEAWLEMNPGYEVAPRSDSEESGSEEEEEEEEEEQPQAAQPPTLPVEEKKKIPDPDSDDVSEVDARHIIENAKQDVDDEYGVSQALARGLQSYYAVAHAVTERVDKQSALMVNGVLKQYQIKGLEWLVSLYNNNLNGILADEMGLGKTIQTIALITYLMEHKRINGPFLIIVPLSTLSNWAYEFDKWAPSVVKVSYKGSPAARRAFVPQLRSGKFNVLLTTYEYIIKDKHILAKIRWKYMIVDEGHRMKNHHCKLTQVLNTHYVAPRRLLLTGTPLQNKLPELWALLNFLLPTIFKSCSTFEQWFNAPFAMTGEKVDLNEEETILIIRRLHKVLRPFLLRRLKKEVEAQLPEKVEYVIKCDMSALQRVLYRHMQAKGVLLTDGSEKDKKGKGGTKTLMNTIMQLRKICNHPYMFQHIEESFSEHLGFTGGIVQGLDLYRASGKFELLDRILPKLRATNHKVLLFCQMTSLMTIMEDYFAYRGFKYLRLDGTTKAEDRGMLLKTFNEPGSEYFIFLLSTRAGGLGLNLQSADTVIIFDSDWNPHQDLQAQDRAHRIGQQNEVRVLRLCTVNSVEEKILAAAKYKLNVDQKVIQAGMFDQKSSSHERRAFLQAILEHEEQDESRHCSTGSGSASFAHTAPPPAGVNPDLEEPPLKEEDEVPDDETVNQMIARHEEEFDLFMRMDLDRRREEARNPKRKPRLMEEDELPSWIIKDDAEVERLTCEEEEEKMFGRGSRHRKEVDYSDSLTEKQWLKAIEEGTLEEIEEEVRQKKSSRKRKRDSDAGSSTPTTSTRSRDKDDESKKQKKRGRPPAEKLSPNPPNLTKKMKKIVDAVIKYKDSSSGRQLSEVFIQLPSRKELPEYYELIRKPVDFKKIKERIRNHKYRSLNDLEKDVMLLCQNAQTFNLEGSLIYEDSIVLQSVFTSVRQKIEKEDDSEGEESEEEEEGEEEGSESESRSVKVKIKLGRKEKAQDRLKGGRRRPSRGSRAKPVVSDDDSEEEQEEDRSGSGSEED
The assay can be described thus: HiBiT-BRG1 cell-based degradation assay (Nano-Glo HiBiT Lytic Detection, 24 h). The settings on record: HeLa cells expressing HiBit-BRG1 and LgBit; for DC50: read-out: BRG1 HiBit Degradation IC50; for Dmax: HeLa, top dose 30 μM, read-out: BRG1 HiBit Degradation Maximum measured. The method in brief:
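Stable HeLa line expressing HiBiT-BRG1 and LgBiT, seeded at 5000 cells/well; luminescence read after lytic Nano-Glo HiBiT reagent and 10 min shaking at RT. % degradation normalised between DMSO (high control) and 2 μM reference BRM/BRG1 degrader (low control).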

Where only a bound is given, the exact number is not on record here.

T1 sequence (P51531 whole entry, the tested form may be a part): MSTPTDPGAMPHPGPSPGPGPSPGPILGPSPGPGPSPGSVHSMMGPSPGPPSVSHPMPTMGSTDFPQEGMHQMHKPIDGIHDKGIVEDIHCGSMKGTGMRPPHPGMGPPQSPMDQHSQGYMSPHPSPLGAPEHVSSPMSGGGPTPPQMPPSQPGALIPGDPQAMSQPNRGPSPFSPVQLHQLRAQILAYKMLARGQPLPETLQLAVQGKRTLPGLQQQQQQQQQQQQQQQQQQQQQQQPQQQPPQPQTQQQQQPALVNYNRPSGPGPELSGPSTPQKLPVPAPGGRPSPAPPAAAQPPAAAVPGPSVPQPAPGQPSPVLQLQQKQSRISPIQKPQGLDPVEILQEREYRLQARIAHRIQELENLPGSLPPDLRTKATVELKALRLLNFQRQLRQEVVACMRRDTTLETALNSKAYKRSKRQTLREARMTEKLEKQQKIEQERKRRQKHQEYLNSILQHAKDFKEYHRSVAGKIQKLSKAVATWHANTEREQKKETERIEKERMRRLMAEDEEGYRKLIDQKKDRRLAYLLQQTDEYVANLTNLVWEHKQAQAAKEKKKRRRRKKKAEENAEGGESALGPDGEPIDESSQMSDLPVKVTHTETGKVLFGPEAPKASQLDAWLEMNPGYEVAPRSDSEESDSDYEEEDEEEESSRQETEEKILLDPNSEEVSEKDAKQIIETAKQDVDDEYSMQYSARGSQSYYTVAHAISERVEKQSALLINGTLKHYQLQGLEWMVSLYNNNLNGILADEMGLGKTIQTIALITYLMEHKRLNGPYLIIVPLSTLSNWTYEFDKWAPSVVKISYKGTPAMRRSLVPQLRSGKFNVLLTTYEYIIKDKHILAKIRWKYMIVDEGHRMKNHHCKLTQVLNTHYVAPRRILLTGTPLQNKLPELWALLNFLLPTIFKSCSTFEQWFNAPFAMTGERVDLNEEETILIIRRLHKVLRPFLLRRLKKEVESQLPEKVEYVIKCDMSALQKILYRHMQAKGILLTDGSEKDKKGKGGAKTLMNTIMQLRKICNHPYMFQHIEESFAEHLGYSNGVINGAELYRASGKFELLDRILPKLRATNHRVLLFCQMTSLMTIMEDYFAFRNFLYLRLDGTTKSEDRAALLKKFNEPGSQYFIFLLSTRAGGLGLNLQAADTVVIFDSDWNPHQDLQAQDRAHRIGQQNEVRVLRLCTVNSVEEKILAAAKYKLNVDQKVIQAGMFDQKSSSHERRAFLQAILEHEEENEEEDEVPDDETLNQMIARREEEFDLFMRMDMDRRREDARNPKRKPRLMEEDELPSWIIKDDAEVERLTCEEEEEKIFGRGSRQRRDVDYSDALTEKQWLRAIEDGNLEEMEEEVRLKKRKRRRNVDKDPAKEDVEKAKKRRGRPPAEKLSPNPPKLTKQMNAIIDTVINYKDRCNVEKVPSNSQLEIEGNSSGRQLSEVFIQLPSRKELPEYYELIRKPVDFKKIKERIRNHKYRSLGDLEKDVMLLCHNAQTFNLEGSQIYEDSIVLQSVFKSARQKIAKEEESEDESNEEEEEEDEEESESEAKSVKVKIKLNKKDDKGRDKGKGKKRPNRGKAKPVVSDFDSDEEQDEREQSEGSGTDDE

Regarding `CS(=O)(=O)n1ccc(C(=O)NCC(=O)Nc2nc(-c3cccc(-c4cccc(CNC(=O)C5CC5CNC(=O)COc5ccc6c(c5)C(=O)N(C5CCC(=O)NC5=O)C6=O)c4)c3)cs2)c1` (stereo not shown) [Compound 61, N-[2-[[4-[3-[3-[[[2-[[[2-[2-(2,6-dioxo-3-piperidyl)-1,3-dioxo-isoindolin-5-yl]oxyacetyl]amino]methyl]-cyclopropanecarbonyl]amino]methyl]-phenyl]phenyl]thiazol-2-yl]amino]-2-oxo-ethyl]-1-methylsulfonyl-pyrrole-3-carboxamide], in assay [1], the DC50 lay in the range of 1 to 10 µM; the “BRM HiBit Degradation Maximum measured” value is “B (‘B’ = Maximum degradation ≥50% and ≤75%)”. For the same compound, in assay [2], the DC50 was in the range of 0.1 to 1 µM and the Dmax is 50 to 75%.

With `CS(=O)(=O)n1ccc(C(=O)N[C@@H](COCc2ccc(C(=O)NCCOCc3cccc(COCCOc4ccc5c(c4)C(=O)N(C4CCC(=O)NC4=O)C5=O)c3)cc2)C(=O)Nc2nc(-c3ccccc3)cs2)c1` (stereo partly drawn) [Compound 237, N-[2-([3-[(2-[[2-(2,6-dioxopiperidin-3-yl)-1,3-dioxoisoindol-5-yl]oxy]ethoxy)methyl]phenyl]methoxy)ethyl]-4-[[(2S)-2-[(1-methanesulfonylpyrrol-3-yl)formamido]-2-[(4-phenyl-1,3-thiazol-2-yl)carbamoyl]ethoxy]methyl]benzamide], in assay [1], the DC50 was in the range of 0.1 to 1 µM; the “BRM HiBit Degradation Maximum measured” value is “B (‘B’ = Maximum degradation ≥50% and ≤75%)”. In addition, in assay [2], the DC50 was 0.1 to 1 µM and the Dmax lay within 50 to 75%.

With `CS(=O)(=O)n1ccc(C(=O)NCC(=O)Nc2nc(C3CCCN(C(=O)CCCCCCCOc4cccc5c4C(=O)N(C4CCC(=O)NC4=O)C5=O)C3)cs2)c1` (stereo not shown) [Compound 148, N-{4-[1-(8-{[2-(2,6-dioxopiperidin-3-yl)-1,3-dioxo-2,3-dihydro-1H-isoindol-4-yl]oxy}octanoyl)piperidin-3-yl]-1,3-thiazol-2-yl}-2-[(1-methanesulfonyl-1H-pyrrol-3-yl)formamido]acetamide], in assay [1], the DC50 is greater than 10 µM and the “BRM HiBit Degradation Maximum measured” value is reported as “C (‘C’ = Maximum degradation <50%)”. Besides, in assay [2], the DC50 was greater than 10 µM and the Dmax was less than 50%.

In the case of `CS(=O)(=O)n1ccc(C(=O)N[C@@H](COCc2ccc(CNC(=O)CCN3CC4(C3)CN(c3ccc5c(c3)C(=O)N(C3CCC(=O)NC3=O)C5=O)C4)cc2)C(=O)Nc2nc(-c3ccccc3)cs2)c1` (stereo partly drawn) [Compound 176, (2S)-3-([4-[(3-[6-[2-(2,6-dioxopiperidin-3-yl)-1,3-dioxoisoindol-5-yl]-2,6-diazaspiro[3.3]heptan-2-yl]propanamido)methyl]phenyl]methoxy)-2-[(1-methanesulfonylpyrrol-3-yl)formamido]-N-(4-phenyl-1,3-thiazol-2-yl)propanamide], in assay [1], the DC50 was 0.1 to 1 µM; the “BRM HiBit Degradation Maximum measured” value is “B (‘B’ = Maximum degradation ≥50% and ≤75%)”. In addition, in assay [2], the DC50 was 0.1 to 1 µM and the Dmax fell in the range of 50 to 75%.

Consider `CS(=O)(=O)n1ccc(C(=O)N[C@@H](COCc2ccc(C(=O)NCCS(=O)(=O)CCNc3cccc4c3C(=O)N(C3CCC(=O)NC3=O)C4=O)cc2)C(=O)Nc2nc(-c3ccccc3)cs2)c1` (stereo partly drawn) [Compound 190, N-[2-(2-[[2-(2,6-dioxopiperidin-3-yl)-1,3-dioxoisoindol-4-yl]amino]ethanesulfonyl)ethyl]-4-[[(2S)-2-[(1-methanesulfonylpyrrol-3-yl)formamido]-2-[(4-phenyl-1,3-thiazol-2-yl)carbamoyl]ethoxy]methyl]benzamide], for which, in assay [1], the DC50 is greater than 10 µM and the “BRM HiBit Degradation Maximum measured” value is recorded as “C (‘C’ = Maximum degradation <50%)”. Also, in assay [2], the DC50 was greater than 10 µM and the Dmax is less than 50%.

For the compound `CS(=O)(=O)n1ccc(C(=O)NCC(=O)Nc2nc(-c3cccc(-c4ccn(CC(=O)NCCCCCCCCNC(=O)COc5cccc6c5C(=O)N(C5CCC(=O)NC5=O)C6=O)n4)c3)cs2)c1` (stereo not shown) [Compound 5, N-[2-[[4-[3-[1-[2-[8-[[2-[2-(2,6-dioxo-3-piperidyl)-1,3-dioxoisoindolin-4-yl]oxyacetyl]amino]octylamino]-2-oxo-ethyl]pyrazol-3-yl]phenyl]thiazol-2-yl]amino]-2-oxo-ethyl]-1-methylsulfonyl-pyrrole-3-carboxamide], in assay [1], the DC50 is greater than 10 µM and the “BRM HiBit Degradation Maximum measured” value was “C (‘C’ = Maximum degradation <50%)”. For the same compound, in assay [2], the DC50 was greater than 10 µM and the Dmax was less than 50%.

Take `CS(=O)(=O)n1ccc(C(=O)N[C@@H](CCCCNC(=O)CCCCCCCOc2cccc3c2C(=O)N(C2CCC(=O)NC2=O)C3=O)C(=O)Nc2nc(-c3ccccc3)cs2)c1` (stereo partly drawn) [Compound 289, 8-[[2-(2,6-dioxopiperidin-3-yl)-1,3-dioxoisoindol-4-yl]oxy]-N-[(5S)-5-[(1-methanesulfonylpyrrol-3-yl)formamido]-5-[(4-phenyl-1,3-thiazol-2-yl)carbamoyl]pentyl]octanamide]: in assay [1], the DC50 was greater than 10 µM and the “BRM HiBit Degradation Maximum measured” value is reported as “C (‘C’ = Maximum degradation <50%)”. Further, in assay [2], the DC50 is greater than 10 µM and the Dmax was less than 50%.

In the case of `CS(=O)(=O)n1ccc(C(=O)N[C@@H](CCOCCCC(=O)NCCS(=O)(=O)CCNc2cccc3c2C(=O)N(C2CCC(=O)NC2=O)C3=O)C(=O)Nc2nc(-c3ccccc3)cs2)c1` (stereo partly drawn) [Compound 253, (2S)-4-(3-[[2-(2-[[2-(2,6-dioxopiperidin-3-yl)-1,3-dioxoisoindol-4-yl]amino]ethanesulfonyl)ethyl]carbamoyl]propoxy)-2-[(1-methanesulfonylpyrrol-3-yl)formamido]-N-(4-phenyl-1,3-thiazol-2-yl)butanamide], in assay [1], the DC50 is greater than 10 µM and the “BRM HiBit Degradation Maximum measured” value was “C (‘C’ = Maximum degradation <50%)”. Also, in assay [2], the DC50 was greater than 10 µM and the Dmax was less than 50%.

Take `Cc1ncsc1-c1ccc(CNC(=O)[C@@H]2C[C@@H](O)CN2C(=O)[C@@H](NC(=O)CCCCCCCCCCCCCCC(=O)NCc2cccc(-c3cccc(-c4csc(NC(=O)CNC(=O)c5ccn(S(C)(=O)=O)c5)n4)c3)c2)C(C)(C)C)cc1` [Compound 120, N1-((S)-1-((2S,4R)-4-hydroxy-2-((4-(4-methylthiazol-5-yl)benzyl)carbamoyl)pyrrolidin-1-yl)-3,3-dimethyl-1-oxobutan-2-yl)-N16-((3′-(2-(2-(1-(methylsulfonyl)-1H-pyrrole-3-carboxamido)acetamido)thiazol-4-yl)-[1,1′-biphenyl]-3-yl)methyl)hexadecanediamide]: in assay [1], the DC50 was greater than 10 µM and the “BRM HiBit Degradation Maximum measured” value is listed as “C (‘C’ = Maximum degradation <50%)”. In assay [2], the DC50 was greater than 10 µM and the Dmax is less than 50%.

Consider `CS(=O)(=O)n1ccc(C(=O)NCC(=O)Nc2nc(-c3cccc(-c4ccnc(C5(C(=O)NCCCCS(=O)(=O)CCCNc6cccc7c6C(=O)N(C6CCC(=O)NC6=O)C7=O)CC5)c4)c3)cs2)c1` (stereo not shown) [Compound 103, N-(2-((4-(3-(2-(1-((4-((3-((2-(2,6-dioxopiperidin-3-yl)-1,3-dioxoisoindolin-4-yl)amino)propyl)sulfonyl)butyl)carbamoyl)-cyclopropyl)pyridin-4-yl)phenyl)thiazol-2-yl)amino)-2-oxoethyl)-1-(methylsulfonyl)-1H-pyrrole-3-carboxamide], for which, in assay [1], the DC50 is 0.1 to 1 µM; the “BRM HiBit Degradation Maximum measured” value is “B (‘B’ = Maximum degradation ≥50% and ≤75%)”. For the same compound, in assay [2], the DC50 is 0.1 to 1 µM and the Dmax was greater than 75%.

Turning to `CN(CC(=O)N1CCC(C2CCN(C(=O)COc3cccc4c3C(=O)N(C3CCC(=O)NC3=O)C4=O)CC2)CC1)c1cc(-c2cccc(-c3csc(NC(=O)CNC(=O)c4ccn(S(C)(=O)=O)c4)n3)c2)ccn1` (stereo not shown) [Compound 17, N-(2-((4-(3-(2-((2-(1′-(2-((2-(2,6-dioxopiperidin-3-yl)-1,3-dioxoisoindolin-4-yl)oxy)acetyl)-[4,4′-bipiperidin]-1-yl)-2-oxoethyl)(methyl)amino)pyridin-4-yl)phenyl)thiazol-2-yl)amino)-2-oxoethyl)-1-(methylsulfonyl)-1H-pyrrole-3-carboxamide], in assay [1], the DC50 was greater than 10 µM and the “BRM HiBit Degradation Maximum measured” value is “C (‘C’ = Maximum degradation <50%)”. Further, in assay [2], the DC50 was greater than 10 µM and the Dmax was less than 50%.

With `CS(=O)(=O)n1ccc(C(=O)N[C@@H](CCOCCCC(=O)NCCCCS(=O)(=O)CCCNc2cccc3c2C(=O)N(C2CCC(=O)NC2=O)C3=O)C(=O)Nc2nc(-c3ccccc3)cs2)c1` (stereo partly drawn) [Compound 275, (2S)-4-(3-[[4-(3-[[2-(2,6-dioxopiperidin-3-yl)-1,3-dioxoisoindol-4-yl]amino]propanesulfonyl)butyl]carbamoyl]propoxy)-2-[(1-methanesulfonylpyrrol-3-yl)formamido]-N-(4-phenyl-1,3-thiazol-2-yl)butanamide], in assay [1], the DC50 is greater than 10 µM and the “BRM HiBit Degradation Maximum measured” value is given as “C (‘C’ = Maximum degradation <50%)”. Besides, in assay [2], the DC50 was greater than 10 µM and the Dmax was less than 50%.

For `CS(=O)(=O)n1ccc(C(=O)NCC(=O)Nc2nc(-c3cccc(-c4ccnc(C5(C(=O)NCCNc6ccc7c(c6)C(=O)N(C6CCC(=O)NC6=O)C7)CC5)c4)c3)cs2)c1` (stereo not shown) [Compound 168, N-(2-((4-(3-(2-(1-((2-((2-(2,6-dioxopiperidin-3-yl)-3-oxoisoindolin-5-yl)amino)ethyl)carbamoyl)cyclopropyl)pyridin-4-yl)phenyl)thiazol-2-yl)amino)-2-oxoethyl)-1-(methylsulfonyl)-1H-pyrrole-3-carboxamide], in assay [1], the DC50 is less than 0.1 µM and the “BRM HiBit Degradation Maximum measured” value is recorded as “A (‘A’ = Maximum degradation >75%)”. Further, in assay [2], the DC50 was less than 0.1 µM and the Dmax was greater than 75%.
